Columns and labels:
bacteria [1] = assay: bacterial growth in the 3D porous medium with antibiotic (light absorbance at 600 nm); type: cell-based; details: porous media
Experimental: In some embodiments, changes in growth/motility due to changes in antibiotic or antibiotic concentrations can be quantified. […] Using an 0.81% gel with different concentrations of kanamycin ([…] (ref 504), 317.5 μg/ml (ref 503), 156.25 μg/ml (ref 502), and 78.125 μg/ml (ref 501)), it can be seen that for the two highest concentrations, there was no growth.
(§1) In both figures, different concentrations of ampicillin were tested 1 μg/ml (ref. 511, 521), 2 μg/ml (ref 512, 522), 3 μg/ml (ref 513, 523), 4 μg/ml (ref 514, 524) and 6 μg/ml (ref 515, 525). For FIG. 6B, the different concentrations were added to bacteria in liquid LB media with no shaking.
(§2) In FIGS. 6A-6C, the levels of bacteria were monitored by measuring light absorbance at 600 nm. In some embodiments, the cells or media is irradiated with light from a light source positioned above the cells, and a lens or sensor positioned below the cells then captures the light either being emitted from the cells (i.e., the intensity of light being emitted by a marker gene, etc.) or being transmitted through the cells (i.e., not being absorbed). A processor can then be used to quantify the measured light or sensor signals. Further a processor can also be used to convert the measured light or sensor signals into concentrations or bacterial cell counts, via, e.g., calibration curves. Based on that, various antibiotic performance characteristics can be determined—MIC, minimal bactericidal concentration (MBC), etc.

bacteria [2] = assay: bacterial growth in liquid LB media with no shaking, with antibiotic (light absorbance at 600 nm); type: cell-based
Experimental: as §1, §2

SMILES: CC1(C)S[C@@H]2[C@H](NC(=O)[C@H](N)c3ccccc3)C(=O)N2[C@H]1C(=O)O [ampicillin]
- bacterial growth (bacteria [1]; ampicillin 1 μg/ml, FIG. 6C ref 521): showed growth
- bacterial growth (bacteria [1]; ampicillin 2 μg/ml, FIG. 6C ref 522): only the 1 μg/ml concentration showed growth
- bacterial growth (bacteria [1]; ampicillin 3 μg/ml, FIG. 6C ref 523): only the 1 μg/ml concentration showed growth
- bacterial growth (bacteria [1]; ampicillin 4 μg/ml, FIG. 6C ref 524): only the 1 μg/ml concentration showed growth
- bacterial growth (bacteria [1]; ampicillin 6 μg/ml, FIG. 6C ref 525): only the 1 μg/ml concentration showed growth
- bacterial growth (bacteria [2]; ampicillin 1 μg/ml, FIG. 6B ref 511): growth was detected
- bacterial growth (bacteria [2]; ampicillin 2 μg/ml, FIG. 6B ref 512): growth was detected
- bacterial growth (bacteria [2]; ampicillin 3 μg/ml, FIG. 6B ref 513): growth was detected
- bacterial growth (bacteria [2]; ampicillin 4 μg/ml, FIG. 6B ref 514): no growth
- bacterial growth (bacteria [2]; ampicillin 6 μg/ml, FIG. 6B ref 515): no growth

— patent US20220403364A1, “BACTERIA IN 3D POROUS MEDIA” (The Trustees of Princeton University, priority 2019, published 2022)
